The values that follow come from patent US9790253B2, “OSW-1 analogs and conjugates, and uses thereof” (priority 2011, dated 2017).

Read-outs that look alike come from different tables or passages of the source.

As a reminder, the Kd is the equilibrium constant for the complex coming apart.

For series [1], the target named is OSBP (oxysterol-binding protein) (Homo sapiens, UniProt P22059). The note with it: cited from earlier work.
Another series relates to CHO-K1 cells. Nature of the series: Sphingomyelin biosynthesis, [3H]-serine pulse-labeling, CHO-K1. Format: cell-based. As for the experimental part: (§1) Sphingomyelin is biosynthesized from ceramide at the Golgi apparatus. Ceramide is primarily transported from the ER to the Golgi by ceramide transport protein (CERT), and the transport activity of CERT is both OSBP1- and VAP-A dependent. […] To determine whether the ORPphilins affect sphingomyelin synthesis, pulse-labeling with [^3H]-serine was performed in CHO-K1 and HCT-116 cells and the amount of tritium incorporated into sphingomyelin and other lipids then measured. Cells were treated with vehicle or compound for 6 h, and in the last 2 h the cells were pulsed with 10 μCi [^3H]-serine. Lipids were extracted and isolated by TLC, and label incorporation into sphingomyelin was measured by scintillation counting.

In series [2] the test system is HCT-116 p21^+/+ (wt) cells. Description: Growth inhibition (cell viability assay) of HCT-116 p21+/+ cells. The note with it: for GI50: HCT-116 p21+/+. On the procedure: (§2) Cell viability assay. Cells were plated into 96-well plates in 75 μL of media. After 24 h, a time-zero plate was produced by adding 25 μL of media and 20 μL of CellTiter-Blue® (Promega) to the wells, followed by incubation at 37° C. for 90 min. Fluorescence (544 nm excitation; 590 nm emission) was detected using a SPECTRAmax® Gemini XS to establish cell viability at time of dosing. Then, compounds were serially diluted in media and delivered to the cells as 4× solutions in 25 μL of media. At either 48 h or 72 h, CellTiter-Blue® was added and the fluorescence was recorded as described above.
(§3) Tasdemir et al. (2002) J Nat Prod 65:210-4. GI50-values of the compounds were determined in HCT-116 p21^+/+ (wt) and p21^−/− cells after 48 h using a resazurin redox dye to measure cell viability.
(§4) Methods are described above in the General Methods section.

The next series concerns normal lymphocytes. To be noted: cited from earlier work.
In series [3] the test system is CERT protein levels in HCT-116 cells or A549 cells. Description: CERT protein levels. Format: cell-based, human. To be noted: high dose (GI90). As for the experimental part:
Suppression of CERT expression is reported to cause a significant reduction in basal SM biosynthesis. Therefore, 1 and 2 were tested for their ability to induce a reduction in CERT levels, akin to the effects of 1 and 2 on OSBP1 levels.

The subject of series [4] is CLL (chronic lymphocytic leukemia) cells taken from patients. The note with it: read-out: GI50 fludarabine-refractory CLL cells; cited from earlier work.
The next series concerns A549 cells. Nature of the series: cells. To be noted: A549 cells, 48 h; read-out: GI50 (nM) 48 h. Format: cell-based, human. The source says: Methods are essentially as described above in the General Methods section in connection with assays using HCT-116 cells.
For another series, the system named is P388 tumor cells. To be noted: single i.p. treatment of 0.01 mg/kg; cited from earlier work.
For series [5], the system named is glioblastoma and leukemia cells. The note with it: cited from earlier work.
The test system of another series is normal astrocytes. To be noted: cited from earlier work.
In another series the test system is HCT-116 cells. Nature of the series: [3H]-serine pulse-labeling, HCT-116. Format: cell-based, human. To be noted: range of concentrations. On the procedure: as §1
In series [6] the test system is OSBP1 localization in A549 cells. Nature of the series: OSBP1 localization by immunofluorescence microscopy, A549. The series is classed as cell-based, human. On the procedure:
Immunofluorescence microscopy. HCT-116 or A549 (adenocarcinomic human alveolar basal epithelial) cells were plated on coverslips in 6-well plates. After 72 h, the culture media was removed and replaced with media containing either compound or vehicle control. At the indicated time-points, the cells were fixed for 10 min using 3.7% formaldehyde in PBS. The coverslips were washed with PBS and permeabilized for 5 min with 0.5% Triton X-100 in PBS. Following PBS washing, the coverslips were blocked for 30 min using Image-iT™ FX (Invitrogen), washed with PBS, and then blocked for 30 min at room temperature (RT) with 1% BSA in PBS (BSA/PBS). The coverslips were then incubated overnight at 4° C. with a primary antibody solution in BSA/PBS. The coverslips were washed with BSA/PBS and incubated for 60 min at RT with Alexa Fluor®-conjugated secondary antibodies (Invitrogen) in BSA/PBS, with the final 30 min including incubation with Hoescht 33258. The coverslips were then washed sequentially with BSA/PBS, PBS, and water and finally mounted on microscope slides using Aqua Poly/Mount (Polysciences Inc.). Imaging data was acquired using Zeiss LSM 510 META scanning confocal microscope.
Perturbations of OSBP1 localization by 1, 2, and 4b in A549 cells were also observed.

For a further series, the system named is U87-MG. The note with it: cited from earlier work.
The next series concerns HCT-116 p21^−/− cells. Description: cells. The note with it: HCT-116 p21-/-. On the procedure: as §2, §3, §4
For the next series, the system named is HL-60. The note with it: cited from earlier work.
For a further series, the system named is tumor xenograft. The note with it: i.p. 9.3 mg/kg (Q2Dx4); cited from earlier work.

Chain of OSBP (oxysterol-binding protein) (P22059 whole entry, species assumed): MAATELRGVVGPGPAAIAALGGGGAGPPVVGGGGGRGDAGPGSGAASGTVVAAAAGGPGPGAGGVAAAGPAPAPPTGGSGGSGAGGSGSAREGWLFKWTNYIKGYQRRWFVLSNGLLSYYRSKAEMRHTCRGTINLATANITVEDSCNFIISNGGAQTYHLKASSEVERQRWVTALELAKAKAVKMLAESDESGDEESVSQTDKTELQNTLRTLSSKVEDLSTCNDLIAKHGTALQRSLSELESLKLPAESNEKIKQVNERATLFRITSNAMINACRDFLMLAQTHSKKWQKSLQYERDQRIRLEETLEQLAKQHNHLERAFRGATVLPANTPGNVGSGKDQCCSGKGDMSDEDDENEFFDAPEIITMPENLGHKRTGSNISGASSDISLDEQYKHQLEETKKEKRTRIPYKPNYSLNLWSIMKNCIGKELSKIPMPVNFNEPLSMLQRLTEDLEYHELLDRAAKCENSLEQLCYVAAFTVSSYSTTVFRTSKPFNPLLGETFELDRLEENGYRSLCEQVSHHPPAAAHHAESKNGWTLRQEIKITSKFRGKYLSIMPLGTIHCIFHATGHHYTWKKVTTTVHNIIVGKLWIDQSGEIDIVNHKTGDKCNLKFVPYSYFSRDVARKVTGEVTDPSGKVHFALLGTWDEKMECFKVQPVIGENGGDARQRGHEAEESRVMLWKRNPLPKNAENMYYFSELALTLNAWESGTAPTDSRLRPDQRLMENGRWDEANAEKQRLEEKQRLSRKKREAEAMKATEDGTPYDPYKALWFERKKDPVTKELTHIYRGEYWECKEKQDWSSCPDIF

For the compound `C[C@H](CCCC(C)(C)O)[C@H]1CC[C@H]2[C@@H]3CC=C4C[C@@H](O)CC[C@]4(C)[C@H]3CC[C@]12C` [Compound 25-OHC, 25-hydroxycholesterol], the Kd in series [1] was 37000 pM. In addition, in the series on CHO-K1 cells (5 μM, 6 h), the “increase in the biosynthesis of sphingomyelin (SM)” value is “ca. 4 fold”. For the same compound, the “SM biosynthesis at GI90 dose” value in the series on CHO-K1 cells (15 μM) is “robust stimulation”.

As to `COc1ccc(C(=O)O[C@H]2[C@H](O[C@@H]3[C@@H](OC(C)=O)[C@H](O[C@H]4C[C@H]5[C@@H]6CC=C7C[C@@H](O)CC[C@]7(C)[C@H]6CC[C@]5(C)[C@@]4(O)[C@H](C)C(=O)CCC(C)C)OC[C@@H]3O)OC[C@@H](O)[C@@H]2O)cc1` [OSW-1], the GI50 in [2] (read-out: GI50 (nM) 48 h p21^+/+, 48 h) is 28 nM; in series [2] (read-out: GI50 (nM) 72 h p21^+/+, 72 h), 1.6 ± 0.6 nM; in the series on normal lymphocytes it was 1730 pM; in series [4] it was 300 pM; with A549 cells it was 0.5 ± 0.24 nM; in the series with normal astrocytes, 7130 pM. Besides, the GI50 in the series on U87-MG is 47 pM; in the series on HCT-116 p21^−/− cells (read-out: GI50 (nM) 48 h p21^−/−, 48 h), 0.2 ± 0.03 nM; in the series on HCT-116 p21^−/− cells (read-out: GI50 (nM) 72 h p21^−/−, 72 h), 0.04 nM; in the series with HL-60 it was 40 pM. Also, the “effect on CERT protein levels” value in [3] is recorded as “did not affect”. Also, in the series with P388 tumor cells, the increased life span is listed as 59%. For the same compound, the “fold more cytotoxic toward glioblastoma and leukemia cells than non-transformed astrocytes and lymphocytes” value in [5] was 30-150 fold. Further, the ceramide labeling result in the series on HCT-116 cells is reported as “no effect”. Besides, in [6], the OSBP1 localization entry is “induced dispersal or vesiculation of OSBP1”. Moreover, the “selectivity, malignant brain tumor cells versus normal astrocytes” value with U87-MG is listed as 150 fold. The “times more active in leukemia cells versus normal lymphocytes” value with HL-60 is 40 times.

Regarding `C[C@@H]1[C@]2(O[C@H]3C=C4[C@@H]5CC[C@H]6Cc7nc8c(nc7C[C@]6(C)[C@H]5C[C@@H](O)[C@]4(C)[C@]31O)C[C@@H]1CC[C@H]3C4=CC[C@@H]5[C@H](C)[C@@]6(OC[C@]45C(=O)C[C@@H]3[C@@]1(C)C8)OC(C)(C)C[C@H]6O)O[C@](C)(CO)C[C@H]2O` [cephalostatin 1, Cephalostatin 1], the “effect on CERT protein levels” value in series [3] is recorded as “did not affect”. Moreover, in series [6], the OSBP1 localization result is “induced dispersal or vesiculation of OSBP1”.

Turning to schweinfurthin A, in series [2], the “fold less cytotoxic than the other ORPphilins” value was 100-300 fold. Also, in the series on tumor xenograft, the toxicity entry is on record as “without overt toxicity” and the tumor volume entry is given as “reduction in tumor volume compared to vehicle-treated controls”.
